Laboratory results taken from US5502065A, “Indole derivatives as 5-HT1 -like agonists” (Pfizer Inc., priority 1992, dated 1996).
Where two headings read alike, the source gives them in different places.

Legend:
[1] = molecular target: T1, "5-HT1 -like" receptor (Canis lupus familiaris, UniProt P79250); assay: contraction of dog isolated saphenous vein strip ("5-HT1 -like" receptor agonist activity); conditions: for Emax: read-out: […] RELATIVE TO 5-HT RESPONSE, relative to 5-HT response, read-out: PERCENTAGE AGONISM RELATIVE TO 5-HT RESPONSE
T1 construct: dog isolated saphenous vein strip; from tissue; host or cells: dog isolated saphenous vein strip
T1 sequence (P79250 whole entry): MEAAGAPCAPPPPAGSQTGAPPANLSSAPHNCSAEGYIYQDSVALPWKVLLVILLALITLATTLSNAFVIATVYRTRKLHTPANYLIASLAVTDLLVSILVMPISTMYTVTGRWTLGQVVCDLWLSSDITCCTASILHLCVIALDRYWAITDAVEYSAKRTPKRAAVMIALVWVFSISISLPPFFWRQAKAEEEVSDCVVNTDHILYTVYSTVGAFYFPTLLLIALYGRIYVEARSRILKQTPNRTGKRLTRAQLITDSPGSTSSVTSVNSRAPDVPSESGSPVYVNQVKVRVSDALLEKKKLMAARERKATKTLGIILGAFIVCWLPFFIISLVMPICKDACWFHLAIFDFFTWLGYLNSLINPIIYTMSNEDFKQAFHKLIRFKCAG
Experimental: The in vitro evaluation of the "5-HT1 -like" receptor agonist activity of the compounds of the formula (I) is carried out by testing the extent to which they mimic sumatriptan in contracting the dog isolated saphenous vein strip (P. P. A. Humphrey et al., .Br. J. Pharmacol., 94, 1123 (1988)).
The in vitro evaluation of the "5-HT1 -like" receptor agonist activity of the compounds of the invention is carried out by testing the extent to which they mimic sumatriptan in contracting the isolated dog saphenous vein strip (P. P. A. Humphrey et al., Brit. J. Pharmacol., 1988, 94, 1123).
EC50 represents the concentration of compound which causes 50% of the maximum contraction effected by it.

[2] = molecular target: T1, "5-HT1 -like" receptor; conditions: dog isolated saphenous vein strip; cited from earlier work
[3] = system: carotid vascular bed; conditions: anaesthetized dog, cited from earlier work
[4] = dog isolated saphenous vein strip

SMILES	EC50 [1] [nM]	Emax [1, 4] [%]	also measured
CN1CCC[C@@H]1Cc1c[nH]c2ccc(-c3cncc(C#N)c3)cc12 [Example 53]	26	75	–
CN1CCC[C@@H]1Cc1c[nH]c2ccc(-c3ccc(C(N)=O)s3)cc12 [Example 64, 5-(5-Carbamoyl-2-thienyl)-3-(1-methylpyrrolidin-2(R)-ylmethyl)-1H-indole]	25	79	–
OCc1ccc(-c2ccc3[nH]cc(C[C@H]4CCCN4)c3c2)cc1 [Example 37, 5-(4-Hydroxymethylphenyl)-3-(pyrrolidin-2(R)-ylmethyl)-1H-indole]	76	72	–
CN1CCC[C@@H]1Cc1c[nH]c2ccc(-c3cccc(S(N)(=O)=O)c3)cc12 [Example 3]	3.78	85	–
c1ncc(-c2ccc3[nH]cc(C[C@H]4CCCN4CC4CC4)c3c2)cn1 [Example 60, 3-(1-Cyclopropylmethylpyrrolidin-2(R)-ylmethyl)-5-(5-pyrimidinyl)-1H-indole]	9.2	105	–
CN1CCC[C@@H]1Cc1c[nH]c2ccc(-c3ccc(CO)o3)cc12 [Example 66, 5-(5-Hydroxymethyl-2-furyl)-3-(1-methylpyrrolidin-2(R)-ylmethyl)-1H -indole]	19	80	–
CN(C)C(=O)CCN1CCC[C@@H]1Cc1c[nH]c2ccc(-c3cccc(C(=O)N(C)C)c3)cc12 [Example 46, 3-1-(2-N,N-dimethylcarbamoylethyl)pyrrolidin-2(R)-ylmethyl!5-(3-N,N-dimethylcarbamoylphenyl)-1H-indole]	–	78	EC50 ([1]; dog isolated saphenous vein strip, concentration of compound which causes 50% of the maximum contraction effected by it, read-out: EC50): 160 nM
CSc1ccc2c(c1)C(N1CCN(C)CC1)Cc1ccccc1S2 (centres unmarked) [methiothepin]	–	–	block of saphenous vein contraction (5-HT antagonism) [2]: can be blocked
CNS(=O)(=O)Cc1ccc2[nH]cc(CCN(C)C)c2c1 [Sumatriptan]	–	–	carotid vascular resistance [3]: selective increase; carotid arterial blood flow ([3]; consequent on increased carotid vascular resistance): decrease
